pEC50: −log10 of the molar value.
Columns and labels:
Murid betaherpesvirus 1 = experiment: In vitro cytotoxic concentration required to inhibit murine cytomegalovirus (MCMV) replication in MEF cell line; type: functional
HepG2 = experiment: In vitro cytotoxic concentration required to inhibit hepatitisB virus (HBV) replication in 2.2.15 cell line; type: functional; settings: Homo sapiens
Human gammaherpesvirus 4 [1] = experiment: In vitro effective concentration required to inhibit Epstein-Barr virus (EBV) replication in Daudi cells; type: functional, organism-based; settings: human gammaherpesvirus 4, Daudi
HFF [2] = experiment: In vitro cytotoxic concentration required to inhibit AD169 strain of human cytomegalovirus (HCMV) replication in HFF cell line; type: functional
Human betaherpesvirus 5 [3] = experiment: In vitro cytotoxic concentration required to inhibit towne strain of human cytomegalovirus (HCMV) replication in HFF cell line; type: functional; settings: Human betaherpesvirus 5, HFF
Human gammaherpesvirus 4 [4] = experiment: In vitro effective concentration required to inhibit Epstein-Barr virus (EBV) replication in H-1 cell line; type: functional, organism-based; settings: human gammaherpesvirus 4, H-1
Human betaherpesvirus 5 [5] = experiment: In vitro effective concentration required to inhibit AD169 strain of human cytomegalovirus (HCMV) replication in HFF cell line; type: functional, organism-based; settings: Human betaherpesvirus 5, HFF
Human betaherpesvirus 5 [6] = experiment: In vitro effective concentration required to inhibit towne strain of human cytomegalovirus (HCMV) replication in HFF cell line; type: functional, organism-based; settings: Human betaherpesvirus 5, HFF
Human alphaherpesvirus 3 = experiment: In vitro effective concentration required to inhibit varicella zoster virus (VZV) replication in HFF cell line; type: functional, organism-based; settings: Human alphaherpesvirus 3, HFF
HFF [7] = experiment: In vitro effective concentration required to inhibit varicella zoster virus (VZV) replication in HFF cell line by plaque reduction assay; type: functional, cell-based; settings: Homo sapiens
MEF = experiment: In vitro effective concentration required to inhibit murine cytomegalovirus (MCMV) replication in MEF cell line; type: functional, cell-based; settings: Mus musculus
Human gammaherpesvirus 4 [8] = experiment: In vitro cytotoxic concentration required to inhibit Epstein-Barr virus (EBV) replication in Daudi cells; type: functional; settings: human gammaherpesvirus 4, Daudi
Hepatitis B virus = experiment: In vitro effective concentration required to inhibit hepatitisB virus (HBV) replication in 2.2.15 cell line; type: functional, organism-based

| Structure (SMILES) | CC50 (Murid betaherpesvirus 1) | CC50 (HepG2) [µM] | pEC50 (Human gammaherpesvirus 4 [1]) | CC50 (HFF [2]) [µM] | CC50 (Human betaherpesvirus 5 [3]) [µM] | pEC50 (Human gammaherpesvirus 4 [4]) | pEC50 (Human betaherpesvirus 5 [5]) | pEC50 (Human betaherpesvirus 5 [6]) | pEC50 (Human alphaherpesvirus 3) | pEC50 (HFF [7]) | pEC50 (MEF) | CC50 (Human gammaherpesvirus 4 [8]) [µM] | CC50 (Murid betaherpesvirus 1; Murid betaherpesvirus 1, MEF) [µM] | pEC50 (Hepatitis B virus) |
| --- | --- | --- | --- | --- | --- | --- | --- | --- | --- | --- | --- | --- | --- | --- |
| COc1nc(N)nc2c1ncn2C=C1CC1(CO)CO [listing 1 of 3 here] | Not toxic |  |  |  |  |  |  |  |  |  |  |  |  |  |
| Nc1nc(F)c2ncn(C=C3CC3(CO)CO)c2n1 [listing 1 of 2 here] |  | > 100 | < 3.72 | > 337 | > 100 | 4.73 | 4.36 | 4.48 | 4.50 | 3.74 | 4.72 | > 189 | 176 | 7.70 |
| Nc1ccn(/C=C2/CC2(CO)CO)c(=O)n1 |  | > 50 | < 4.35 | > 448 | > 100 | < 4.70 | 4.84 | 4.49 | < 3.35 |  | 4.27 | 70 | > 448 | < 5.00 |
| Nc1nc2c(ncn2COC(CO)CO)c(=O)[nH]1 [GANCICLOVIR] |  |  |  | > 392 | > 100 |  | 5.64 | 5.39 |  |  | 5.30 |  | > 35 |  |
| Nc1nc(N)c2ncn(C=C3CC3(CO)CO)c2n1 [listing 1 of 3 here] |  | 48 | < 3.72 | > 381 | > 100 | < 4.70 | < 3.42 | 4.82 | 5.08 | 4.41 |  | > 191 |  | 5.40 |
| Cc1cn(/C=C2\CC2(CO)CO)c(=O)[nH]c1=O |  | > 50 | 3.75 | > 420 | > 100 | < 4.70 | < 3.38 | < 4.00 | < 3.38 |  |  | > 210 |  | < 5.00 |
| Nc1ncnc2c1ncn2/C=C1/CC1(CO)CO |  | > 50 | 3.78 | > 404 | 100 | 4.80 | 4.93 | 5.44 | < 3.39 |  | 5.01 | > 202 | > 404 | < 5.00 |
| Nc1nc2c(ncn2/C=C2/CC2(CO)CO)c(=O)[nH]1 [FILOCICLOVIR] |  | > 50 | 4.35 | > 380 | > 100 | 5.15 | 6.31 | 6.34 | < 3.42 |  | 6.57 | 74 | > 380 | < 5.00 |
| Nc1ccn(/C=C2\CC2(CO)CO)c(=O)n1 |  | > 50 | 3.82 | > 448 | > 100 | < 4.70 | < 3.35 | < 4.00 | < 3.35 |  |  | > 224 |  | < 5.00 |
| Nc1nc(NC2CC2)c2ncn(/C=C3\CC3(CO)CO)c2n1 |  | > 100 | 6.52 | > 331 | > 100 | < 4.70 | 3.49 | < 4.00 | < 3.48 |  |  | > 165 |  | < 4.70 |
| Cc1cn(/C=C2/CC2(CO)CO)c(=O)[nH]c1=O |  | > 50 | 5.34 | > 420 | > 100 | 4.72 | < 3.38 | < 4.00 | < 3.38 |  |  | > 210 |  | < 5.00 |
| Nc1nc(Cl)c2ncn(C=C3CC3(CO)CO)c2n1 [listing 1 of 2 here] |  | 23.6 | < 3.75 | > 355 | > 100 | 4.79 | < 3.45 | < 4.00 | < 4.15 |  |  | > 178 |  | < 4.70 |
| Nc1ncnc2c1ncn2/C=C1\CC1(CO)CO |  | > 50 | 3.88 | > 404 | > 100 | < 4.70 | < 3.39 | < 4.00 | 4.93 | 4.35 |  | > 202 |  | < 5.00 |
| Nc1nc(N)c2ncn(C=C3CC3(CO)CO)c2n1 [listing 2 of 3 here] |  | > 100 | > 6.51 | > 381 | > 100 | < 4.70 | 3.50 | < 4.00 | 3.57 |  |  | 191 |  | < 4.70 |
| Nc1nc2c(ncn2/C=C2\CC2(CO)CO)c(=O)[nH]1 |  | > 50 | 3.92 | > 380 | > 100 | < 4.70 | 3.92 | 4.41 | < 3.45 |  | 4.38 | > 190 | > 380 | < 4.70 |
| COc1nc(N)nc2c1ncn2C=C1CC1(CO)CO [listing 2 of 3 here] |  | 90 | 3.79 | > 361 | > 100 | 5.32 | 5.57 | 5.46 | 4.95 | 5.48 | 5.70 | > 180 | > 361 | < 4.70 |
| Nc1nc(NC2CC2)c2ncn(/C=C3/CC3(CO)CO)c2n1 |  | > 100 | < 3.78 | > 331 | > 100 | < 4.70 | 3.59 | < 4.00 | < 4.18 |  |  | > 165 |  | < 4.70 |
| Nc1nc(F)c2ncn(C=C3CC3(CO)CO)c2n1 [listing 2 of 2 here] |  | 56.4 | < 3.72 | > 377 | > 100 | 4.68 | 4.65 | 4.42 | 4.38 | 4.30 | 4.72 | > 189 | 176 | < 4.70 |
| Nc1nc(Cl)c2ncn(C=C3CC3(CO)CO)c2n1 [listing 2 of 2 here] |  | 11.6 | 3.85 | > 301 | > 100 | 4.79 | < 3.45 | < 4.00 | < 4.15 |  |  | > 178 |  | < 4.70 |
| Nc1nc(N)c2ncn(C=C3CC3(CO)CO)c2n1 [listing 3 of 3 here] | Not toxic |  |  |  |  |  |  |  |  |  |  |  |  |  |
| COc1nc(N)nc2c1ncn2C=C1CC1(CO)CO [listing 3 of 3 here] |  | > 100 | < 3.74 | > 361 | > 100 | < 4.70 | < 3.44 | < 4.00 | 3.49 |  |  | > 180 |  | < 4.70 |
